Test results: PubChem BioAssay AID256 (DTP/NCI, 2004)
Toxic doses and inconclusive results are not listed. Rule for the calls: active = survival T/C of 150% or more; inactive = T/C below 125% in these data. Non-standard residues stand in square brackets, D forms with d. Residues, ends and D or L forms follow the SMILES beside them. ξ: configuration not given here. *: point of attachment. ONp = O=[N+]([O-])c1ccc(O*)cc1; ξS = NC(CO)C(=O)O

Test system: CD2F1 mice, L1210 leukemia ip, survival T/C
Assay: NCI In Vivo Anticancer Drug Screen. Data for tumor model L1210 Leukemia (intraperitoneal) in CD2F1 (CDF1) mice
Details: higher = longer survival
Outline: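 Each value reflects a quotient of treated over vehicle control outcomes in mice with a transplanted tumor.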

[1] = endpoint: mean survival time, dose: 50.0 mg/kg/injection, schedule: Q01DX009 (ip), vehicle: saline
[2] = endpoint: mean survival time, dose: 100.0 mg/kg/injection, schedule: Q01DX009 (ip), vehicle: saline
[3] = endpoint: mean survival time, dose: 25.0 mg/kg/injection, schedule: Q04DX003 (ip), vehicle: saline
[4] = endpoint: mean survival time, dose: 50.0 mg/kg/injection, schedule: Q04DX003 (ip), vehicle: saline
[5] = endpoint: mean survival time, dose: 100.0 mg/kg/injection, schedule: Q04DX003 (ip), vehicle: saline
[6] = endpoint: mean survival time, dose: 100.0 mg/kg/injection, schedule: Q01DX009 (ip), vehicle: saline with Tween-80
[7] = endpoint: mean survival time, dose: 200.0 mg/kg/injection, schedule: Q01DX009 (ip), vehicle: saline with Tween-80
[8] = endpoint: mean survival time, dose: 400.0 mg/kg/injection, schedule: Q01DX009 (ip), vehicle: saline with Tween-80
[9] = endpoint: mean survival time, dose: 100.0 mg/kg/injection, schedule: Q04DX002 (ip), vehicle: saline with Tween-80
[10] = endpoint: mean survival time, dose: 200.0 mg/kg/injection, schedule: Q04DX002 (ip), vehicle: saline with Tween-80
[11] = endpoint: mean survival time, dose: 400.0 mg/kg/injection, schedule: Q04DX002 (ip), vehicle: saline with Tween-80
[12] = endpoint: mean survival time, dose: 100.0 mg/kg/injection, schedule: Q01DX001 (ip), vehicle: Klucel (hydroxypropylcellulose) (HPC)
[13] = endpoint: mean survival time, dose: 200.0 mg/kg/injection, schedule: Q01DX001 (ip), vehicle: Klucel (hydroxypropylcellulose) (HPC)
[14] = endpoint: mean survival time, dose: 400.0 mg/kg/injection, schedule: Q01DX001 (ip), vehicle: Klucel (hydroxypropylcellulose) (HPC)
[15] = endpoint: mean survival time, dose: 100.0 mg/kg/injection, schedule: Q04DX003 (ip), vehicle: saline with Tween-80
[16] = endpoint: mean survival time, dose: 200.0 mg/kg/injection, schedule: Q04DX003 (ip), vehicle: saline with Tween-80
[17] = endpoint: mean survival time, dose: 400.0 mg/kg/injection, schedule: Q04DX003 (ip), vehicle: saline with Tween-80
[18] = endpoint: mean survival time, dose: 200.0 mg/kg/injection, schedule: Q01DX009 (ip), vehicle: saline

Measured: T/C

CNC(=O)CCl
inactive: endpoint: mean survival time, dose: 25.0 mg/kg/injection, schedule: Q01DX009 (ip), vehicle: saline 103 % of control | [1] 105 % of control | [2] 104 % of control

CC(C)N1C(=O)N(Cl)C2C1N(Cl)C(=O)N2Cl (stereo unspecified)
inactive: endpoint: median survival time, dose: 1.5 mg/kg/injection, schedule: Q01DX009 (ip), vehicle: saline with Tween-80 101 % of control | endpoint: median survival time, dose: 3.0 mg/kg/injection, schedule: Q01DX009 (ip), vehicle: saline with Tween-80 102 % of control | endpoint: median survival time, dose: 6.0 mg/kg/injection, schedule: Q01DX009 (ip), vehicle: saline with Tween-80 93 % of control | endpoint: median survival time, dose: 12.0 mg/kg/injection, schedule: Q01DX009 (ip), vehicle: saline with Tween-80 103 % of control | endpoint: median survival time, dose: 24.0 mg/kg/injection, schedule: Q01DX009 (ip), vehicle: saline with Tween-80 104 % of control | endpoint: median survival time, dose: 25.0 mg/kg/injection, schedule: Q01DX009 (ip), vehicle: saline with Tween-80 100 % of control

CN(C)/N=C/c1ccccn1
inactive: [3] 98 % of control | [4] 95 % of control | [5] 101 % of control | endpoint: mean survival time, dose: 200.0 mg/kg/injection, schedule: Q04DX003 (ip), vehicle: saline 120 % of control

O=C(CNC(=O)Nc1ccc(Cl)c(Cl)c1)NNC(=O)Nc1ccc(F)c(Cl)c1
inactive: [6] 96 % of control | [7] 95 % of control | [8] 91 % of control

S=C1NC=CC(S)N1 (stereo unspecified)
inactive: [9] 103 % of control | [10] 98 % of control | [11] 98 % of control

CC([NH-])C(C)[NH-].CC([NH-])C(C)[NH-].[Cl][Co][Cl] (stereo unspecified)
inactive: endpoint: mean survival time, dose: 100.0 mg/kg/injection, schedule: Q04DX002 (ip), vehicle: saline 103 % of control

O=[N+]([O-])c1ccc(N=Cc2ccc3c(c2)OCO3)cc1
inactive: [12] 106 % of control | endpoint: mean survival time, dose: 100.0 mg/kg/injection, schedule: Q01DX009 (ip), vehicle: Klucel (hydroxypropylcellulose) (HPC) 96 % of control | [13] 101 % of control | endpoint: mean survival time, dose: 200.0 mg/kg/injection, schedule: Q01DX009 (ip), vehicle: Klucel (hydroxypropylcellulose) (HPC) 97 % of control | [14] 96 % of control | endpoint: mean survival time, dose: 400.0 mg/kg/injection, schedule: Q01DX009 (ip), vehicle: Klucel (hydroxypropylcellulose) (HPC) 96 % of control

CCOC/C=C\C1=CCCCC1
inactive: endpoint: mean survival time, dose: 50.0 mg/kg/injection, schedule: Q01DX009 (ip), vehicle: saline with Tween-80 97 % of control | [6] 114 % of control | [7] 105 % of control

NC(CO)C(=O)NCC(=O)Oc1ccc([N+](=O)[O-])cc1 (stereo unspecified) (H-[ξS]-Gly-ONp)
inactive: endpoint: mean survival time, dose: 75.0 mg/kg/injection, schedule: Q01DX001 (ip), vehicle: saline 100 % of control | endpoint: mean survival time, dose: 150.0 mg/kg/injection, schedule: Q01DX001 (ip), vehicle: saline 102 % of control | endpoint: mean survival time, dose: 300.0 mg/kg/injection, schedule: Q01DX001 (ip), vehicle: saline 96 % of control

O=C(c1ccccc1)c1c(-c2ccccc2)c(-c2ccccc2)c(-c2ccccc2)c(-c2ccccc2)c1-c1ccccc1
inactive: [15] 89 % of control | [16] 90 % of control | [17] 90 % of control

COC(=O)C(N)Cc1ccc(OC(c2ccccc2)(c2ccccc2)c2ccccc2)cc1 (stereo unspecified)
inactive: [1] 100 % of control | [2] 92 % of control | [18] 94 % of control | endpoint: mean survival time, dose: 400.0 mg/kg/injection, schedule: Q01DX009 (ip), vehicle: saline 94 % of control

Cc1cc(C(C(N)=O)c2ccccc2)ccc1N(CCCl)CCCl (stereo unspecified)
inactive: endpoint: mean survival time, dose: 88.8 mg/kg/injection, schedule: Q01DX001 (ip), vehicle: other 122 % of control | endpoint: mean survival time, dose: 300.0 mg/kg/injection, schedule: Q01DX001 (ip), vehicle: other 104 % of control

CN(N)C=O
inactive: [3] 98 % of control | [4] 94 % of control | [5] 102 % of control

CC(=O)C1C(=O)C(=O)OC1C (stereo unspecified)
inactive: [1] 102 % of control | [2] 98 % of control | [18] 101 % of control

COc1ccc(COC(=O)Nc2ccccc2[N+](=O)[O-])cc1
inactive: [9] 91 % of control | [10] 87 % of control | [11] 91 % of control

C/C(=N\Nc1ccc([N+](=O)[O-])cc1[N+](=O)[O-])c1ccc[nH]1
inactive: [6] 87 % of control | [15] 95 % of control | [7] 97 % of control | [16] 95 % of control | [8] 93 % of control | [17] 91 % of control

C[N+]1(O)C2CCC1CC(O)C2 (stereo unspecified)
inactive: [12] 97 % of control | [13] 104 % of control | [14] 97 % of control

CCOc1ccc(OCC)c(NC(=O)Nc2cccc(Cl)c2)c1
inactive: endpoint: mean survival time, dose: 25.0 mg/kg/injection, schedule: Q04DX002 (ip), vehicle: saline with Tween-80 92 % of control | endpoint: mean survival time, dose: 50.0 mg/kg/injection, schedule: Q04DX002 (ip), vehicle: saline with Tween-80 92 % of control | [9] 88 % of control

[Cl][Pt+2][Cl].[NH-]CC(O)C[NH-]
inactive: endpoint: median survival time, dose: 5.0 mg/kg/injection, schedule: Q04DX003 (ip), vehicle: saline 108 % of control | endpoint: median survival time, dose: 10.0 mg/kg/injection, schedule: Q04DX003 (ip), vehicle: saline 103 % of control | endpoint: median survival time, dose: 20.0 mg/kg/injection, schedule: Q04DX003 (ip), vehicle: saline 105 % of control | endpoint: median survival time, dose: 40.0 mg/kg/injection, schedule: Q04DX003 (ip), vehicle: saline 108 % of control

Nc1nc(=O)n2ccn(C3OC(CO)C(O)C3O)c2n1 (stereo unspecified)
inactive: endpoint: mean survival time, dose: 12.5 mg/kg/injection, schedule: Q01DX005 (ip), vehicle: distilled water + Tween-80 103 % of control | endpoint: mean survival time, dose: 25.0 mg/kg/injection, schedule: Q01DX005 (ip), vehicle: distilled water + Tween-80 100 % of control | endpoint: mean survival time, dose: 50.0 mg/kg/injection, schedule: Q01DX005 (ip), vehicle: distilled water + Tween-80 100 % of control | endpoint: mean survival time, dose: 100.0 mg/kg/injection, schedule: Q01DX005 (ip), vehicle: distilled water + Tween-80 100 % of control | endpoint: mean survival time, dose: 200.0 mg/kg/injection, schedule: Q01DX005 (ip), vehicle: distilled water + Tween-80 103 % of control
